Results reported in patent US12083101B2, “Biaryl derivatives as YAP/TAZ-TEAD protein-protein interaction inhibitors” (Novartis AG, priority 2020, dated 2024).

How the values were obtained:
[1] = target: Avi-humanTEAD4 217-434 / Cy5 labeled humanYAP 60-100 (Homo sapiens (Human), UniProt Q15561); assay: TR-FRET YAP-TEAD4 in-vitro biochemical assay; assay type: binding; details: 1 nM Avi-humanTEAD4 217-434, 20 nM Cy5-humanYAP 60-100, 1 h room temperature
[2] = tested on: NCI-H2052 Tet-On shYAP_2371 pLenti6 MCAT_Luc cells (YAP-dependent transcription); assay: YAP reporter gene activity assay (MCAT-luciferase), NCI-H2052; assay type: cell-based; details: Homo sapiens, NCI-H2052, 24 h, 24 hours incubation, BrightGlo luminescence
Description: (§1) This cell line was also transduced with a Tet-pLKO-puro-based construct mediating tetracycline-inducible expression of a short-hairpin directed against the 3′UTR of the YAP1 mRNA (5′-[…]-3′).
(§2) Stock solutions of compounds were prepared at a concentration of 10 mM in DMSO and stored at 4° C. Where necessary to afford a full dose-response curve, the stock solutions were pre-diluted in DMSO to 1'000-fold the desired reduced start concentration. On the day after cell seeding, eleven 2-fold serial dilutions of each compound were dispensed directly into the cell assay plates using a HP 300D non-contact Digital Dispenser (TECAN, Mannedorf, Switzerland). The final concentration of DMSO was normalized to 0.1% in all wells.
The ability of compounds to inhibit YAP-dependent transcription was assessed in NCI-H2052 Tet-On shYAP_2371 pLenti6 MCAT_Luc cells, while specificity (lack of unspecific inhibition of luciferase expression of activity) was assessed in MKN-45/Ubc-luc cells. […] Following incubation for 24 hours at 37° C., compound-mediated modulation of reporter-gene activity was quantified 5 min after addition of 20 μl BrightGlo (Promega, Cat #E2620), by measuring luminescence intensity on a multi-mode plate-reader (TECAN, Männedorf, Switzerland, Integration time 100 ms). For data analysis, the assay background value determined in wells containing medium, but no cells, was subtracted from all data points. Dose-dependent compound effects were expressed as % of vehicle-treated control (luminescence signal produced by cells receiving DMSO only) and IC50s calculated using a four-parametric fit model.

[3] = tested on: NCI-H2052 Tet-On shYAP_2371 pLenti6 MCAT_Luc cells; assay: Proliferation assay (resazurin), NCI-H2052; assay type: cell-based; details: Homo sapiens, NCI-H2052, 72 h, 72 hours incubation
Description: as §1, §2
(§3) The functional effect of compounds on cell proliferation was assessed using NCI-H2052 Tet-On shYAP_2371 pLenti6 MCAT_Luc and MKN-45/Ubc-luc cells by quantifying the reducing capacity of live cells using the redox indicator dye resazurin. […] For data analysis, the assay background value determined in wells containing medium, but no cells, was subtracted from all data points. […] The effect of a particular test compound concentration on cell proliferation/viability was expressed as percentage of day 0-corrected fluorescence reading obtained for cells treated with vehicle only (DMSO, final concentration 0.1%), which was set as 100%, whereas the fluorescence reading for wells containing medium only, but no cells, was set as −100%. Compound concentrations leading to half-maximal growth inhibition (GI50) were determined using standard four parameter curve fitting.

MKN-45/Ubc-luc cells [4] = assay: Proliferation assay (resazurin), MKN-45; assay type: cell-based; details: Homo sapiens, 72 hours incubation
Description: As a specificity control, MKN-45 cells were stably transduced with a Ubc-Luc reporter construct, in which constitutive expression of firefly luciferase is driven by the promoter of the ubiquitin C housekeeping gene.
as §2, §3

MKN-45/Ubc-luc cells [5] = assay: Reporter gene specificity control (Ubc-luciferase), MKN-45; details: Homo sapiens, MKN-45, 24 h, read-out: Reporter gene assay MKN-45 IC50 [μM], MKN-45/Ubc-luc cells (YAP deleted, specificity control), 24 hours incubation

Sequence of Avi-humanTEAD4 217-434 / Cy5 labeled humanYAP 60-100 (Q15561 217-434): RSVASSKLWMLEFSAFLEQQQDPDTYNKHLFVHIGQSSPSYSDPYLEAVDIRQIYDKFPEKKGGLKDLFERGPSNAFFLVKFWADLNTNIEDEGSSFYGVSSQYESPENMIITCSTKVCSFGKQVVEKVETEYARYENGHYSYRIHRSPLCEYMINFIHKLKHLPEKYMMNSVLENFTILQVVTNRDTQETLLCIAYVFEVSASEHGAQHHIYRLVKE

SMILES	IC50 [1] [nM]	IC50 [2] [nM]	GI50 [3] [nM]	GI50 (MKN-45/Ubc-luc cells [4]) [µM]	IC50 (MKN-45/Ubc-luc cells [5]) [µM]
NC[C@@]1(c2ccccc2)Cc2c(ccc(Cl)c2-c2c(F)cccc2C(N)=O)O1 (atropisomer, axis not shown) [Example 4a-1, 2-((2S,4S)-2-(aminomethyl)-5-chloro-2-phenyl-2,3-dihydrobenzofuran-4-yl)-3-fluorobenzamide]	20	600	590	> 10	> 10
NC[C@@]1(c2ccccc2)Cc2c(ccc(Cl)c2-c2c(C(N)=O)ccc(OCCO)c2F)O1 (atropisomer, axis not shown) [Example 10, 2-((2S,4S)-2-(aminomethyl)-5-chloro-2-phenyl-2,3-dihydrobenzofuran-4-yl)-3-fluoro-4-(2-hydroxyethoxy)benzamide]	3	64	99	> 10	> 10
NC[C@@]1(c2ccccc2)Cc2c(ccc(Cl)c2-c2c(C(N)=O)ccc(OC(F)F)c2F)O1 (atropisomer, axis not shown) [Example 11, 2-((2S,4S)-2-(aminomethyl)-5-chloro-2-phenyl-2,3-dihydrobenzofuran-4-yl)-4-(difluoromethoxy)-3-fluorobenzamide]	21	173	284	> 10	> 20
C[C@H](O)COc1ccc(C(N)=O)c(-c2c(Cl)ccc3c2C[C@@](CN)(c2ccccc2)O3)c1F (atropisomer, axis not shown) [Example 13, 2-((2S,4S)-2-(aminomethyl)-5-chloro-2-phenyl-2,3-dihydrobenzofuran-4-yl)-3-fluoro-4-((S)-2-hydroxypropoxy)benzamide]	6	102	166	> 10	> 10
C[C@@H](O)COc1ccc(C(N)=O)c(-c2c(Cl)ccc3c2C[C@@](CN)(c2ccccc2)O3)c1F (atropisomer, axis not shown) [Example 14, 2-((2S,4S)-2-(aminomethyl)-5-chloro-2-phenyl-2,3-dihydrobenzofuran-4-yl)-3-fluoro-4-((R)-2-hydroxypropoxy)benzamide]	15	176	190	> 10	> 10
C[C@@H](F)COc1ccc(C(N)=O)c(-c2c(Cl)ccc3c2C[C@@](CN)(c2ccccc2)O3)c1F (atropisomer, axis not shown) [Example 15, 2-((2S,4S)-2-(aminomethyl)-5-chloro-2-phenyl-2,3-dihydrobenzofuran-4-yl)-3-fluoro-4-((R)-2-fluoropropoxy)benzamide]	10	270	276	> 10	> 10
COc1ncc(C(N)=O)c(-c2c(Cl)ccc3c2C[C@@](CN)(c2ccccc2)O3)c1F (atropisomer, axis not shown) [Example 18, 4-((2S,4S)-2-(Aminomethyl)-5-chloro-2-phenyl-2,3-dihydrobenzofuran-4-yl)-5-fluoro-6-methoxynicotinamide]	4	379	553	> 12.5	19.5
CNc1ccc(C(N)=O)c(-c2c(Cl)ccc3c2C[C@@](CN)(c2ccccc2)O3)c1F (atropisomer, axis not shown) [Example 20, 2-((2S,4S)-2-(Aminomethyl)-5-chloro-2-phenyl-2,3-dihydrobenzofuran-4-yl)-3-fluoro-4-(methylamino)benzamide]	124	2920	6880	> 10	> 10
CNC[C@@]1(c2ccccc2)Cc2c(ccc(Cl)c2-c2c(C(N)=O)ccc(OC)c2F)O1 (atropisomer, axis not shown) [Example 21, 2-((2S,4S)-5-Chloro-2-((methylamino)methyl)-2-phenyl-2,3-dihydrobenzofuran-4-yl)-3-fluoro-4-methoxybenzamide]	4	154	247	> 10	> 10
CNC(=O)c1ccc(OC)c(F)c1-c1c(Cl)ccc2c1C[C@@](CN)(c1ccccc1)O2 (atropisomer, axis not shown) [Example 22, 2-((2S,4S)-2-(Aminomethyl)-5-chloro-2-phenyl-2,3-dihydrobenzofuran-4-yl)-3-fluoro-4-methoxy-N-methylbenzamide]	9	157	256	> 10	> 20
COc1ccc(C(=O)Nc2cccnc2)c(-c2c(Cl)ccc3c2C[C@@](CN)(c2ccccc2)O3)c1F (atropisomer, axis not shown) [Example 25, 2-((2S,4S)-2-(aminomethyl)-5-chloro-2-phenyl-2,3-dihydrobenzofuran-4-yl)-3-fluoro-4-methoxy-N-(pyridin-3-yl)benzamide]	5	106	145	> 10	> 10
CNC[C@@]1(c2ccccc2)Cc2c(ccc(Cl)c2-c2c(C(=O)NC)ccc(OC)c2F)O1 (atropisomer, axis not shown) [Example 26, 2-((2S,4S)-5-Chloro-2-((methylamino)methyl)-2-phenyl-2,3-dihydrobenzofuran-4-yl)-3-fluoro-4-methoxy-N-methylbenzamide]	21	144	310	> 10	> 20
COc1ccc(C(N)=O)c(-c2c(Cl)ccc3c2C[C@@](CN)(c2cscn2)O3)c1F (atropisomer, axis not shown) [Example 29, 2-((2R,4S)-2-(Aminomethyl)-5-chloro-2-(thiazol-4-yl)-2,3-dihydrobenzofuran-4-yl)-3-fluoro-4-methoxybenzamide]	10	2000	1850	> 10	> 10
NC[C@@]1(c2cccc3c2OC(F)(F)O3)Cc2c(ccc(Cl)c2-c2c(F)cccc2C(N)=O)O1 (atropisomer, axis not shown) [Example 30, 2-((2S,4S)-2-(aminomethyl)-5-chloro-2-(2,2-difluorobenzo[d][1,3]dioxol-4-yl)-2,3-dihydrobenzofuran-4-yl)-3-fluorobenzamide]	143	4770	6840	> 10	> 10
COc1ccc(C(N)=O)c(-c2c(Cl)ccc3c2C[C@@](CN)(c2ccccc2F)O3)c1F (atropisomer, axis not shown) [Example 31, 2-((2S,4S)-2-(Aminomethyl)-5-chloro-2-(2-fluorophenyl)-2,3-dihydrobenzofuran-4-yl)-3-fluoro-4-methoxybenzamide]	3	343	346	> 10	> 10
COc1ccc(C(N)=O)c(-c2c(Cl)c(F)cc3c2C[C@@](CN)(c2ccccc2)O3)c1F (atropisomer, axis not shown) [Example 33, 2-((2S,4S)-2-(aminomethyl)-5-chloro-6-fluoro-2-phenyl-2,3-dihydrobenzofuran-4-yl)-3-fluoro-4-methoxybenzamide]	3	161	161	> 10	> 10
NC[C@@]1(c2ccccc2)Cc2c(cc(F)c(Cl)c2-c2c(C(N)=O)ccc(OC(F)F)c2F)O1 (atropisomer, axis not shown) [Example 35, 2-((2S,4S)-2-(aminomethyl)-5-chloro-6-fluoro-2-phenyl-2,3-dihydrobenzofuran-4-yl)-4-(difluoromethoxy)-3-fluorobenzamide]	9	276	310	> 10	> 10
